# Measured values as given in patent US4247702A, “Method of stabilizing 4-methyl-5-(2'chloroethyl)-thiazol” (Pharmaceutical Licences Company Ltd., priority 1978, dated 1981).
# Assay: Chloride analysis of decomposition deposit of Clomethiazol-Base kept 7 days at 70° C.
# Type: physicochemical
# Settings: deposit after 7 days at 70° C., washed with benzene
# Method: Freshly distilled Clomethiazol-Base was kept for 7 days at 70° C., and the precipitated brown deposit (decomposition products) was washed with benzene and analyzed.
smiles,measurement,value
"Cc1ncsc1CCCl [CMT-Base, 4-Methyl-5-(2'-Chlorethyl)-thiazol]",total chloride greater than the sum of free chloride and chloride of occluded CMT-Base and CMT-HCl (chloride surplus),17%
